# Legend:
# [1] = tested on: Staphylococcus aureus (ATCC 43300); test: Antibacterial MIC, broth microdilution (CLSI); type: cell-based; conditions: for MIC80: Staphylococcus aureus, ATCC43300, read-out: MIC80 S. aureus; for S. aureus Selectivity Indices, Group: SI, IC50 (μM)/MIC80 (μM), HEK293 cytotoxicity
# [2] = tested on: PolyAU double stranded RNA; test: Fluorescence intercalator displacement (FID) assay, SYBR-safe probe; conditions: 20 μM compound, 30° C., lower % = stronger binding
# Description: (§1) The ability of compounds of the invention to bind to DNA and RNA was assessed using a fluorescence intercalator displacement assay. Genomic double stranded DNA (salmon) or PolyAU double stranded RNA is treated with probe molecule (Sybr-Safe) that increases its fluorescence upon binding to nucleic acids.
# (§2) polyAU RNA (Polyadenylic acid—Polyuridylic acid sodium salt, double-stranded homopolymer, P1537, Merck) or genomic DNA (Deoxyribonucleic acid sodium salt from salmon testes, D1626, Merck) was dissolved in 1 mM pH 7.4 phosphate buffer (containing 0.27 mM potassium chloride, 13.7 mM sodium chloride) to a concentration of 1 mg/mL in, SybrSafe (SYBR® Safe DNA Gel Stain, ×10,000 in DMSO, S33102 Invitrogen) was used as supplied by the manufacturer in DMSO, and compounds of the invention were prepared as 10 mM stocks in DMSO. These stock solutions were diluted appropriately with each other and 1 mM phosphate buffer to give test solutions comprised of 20 μM compound of the invention, 12500-fold dilution of SybrSafe and 3.76 ng/mL RNA/DNA. Control solutions of RNA/DNA and SybrSafe, RNA/DNA, and SybrSafe at these concentrations were also prepared. Test and control solutions were heated to 30° C. and the fluorescence of each solution was measured using the SYBER filter setting of a StepOnePlus using melt analysis mode (StepOne Software v2.3). The reduction of fluorescence due to the binding of the compound of the invention to the RNA/DNA was calculated as a normalised percentage based on the fluorescence measured due to the control with SybrSafe and RNA/DNA as maximum and the control with only SybrSafe as minimum.
# (§3) A reduction in normalised % is indicative of probe displacement and thus strong nucleic acid binding.
# [3] = tested on: Genomic double stranded DNA (salmon); test: as above; conditions: 20 μM compound, 30° C., lower % = stronger binding
# Description: as §1, §2, §3
# [4] = tested on: Enterococcus faecalis (ATCC 51299); test: Antibacterial MIC, broth microdilution (CLSI); type: cell-based; conditions: for MIC80: Enterococcus faecalis, ATCC51299, read-out: MIC80 E. faecalis
# T. vaginalis = test: Trichomonas resorufin assay; type: cell-based; conditions: for IC50: Trichomonas vaginalis, read-out: IC50 T. vaginalis
# [5] = tested on: Escherichia coli (ATCC 25922); test: Antibacterial MIC, broth microdilution (CLSI); type: cell-based; conditions: for MIC80: Escherichia coli, ATCC25922, read-out: MIC80 E. coli
SMILES,MIC80 [1] [µM],% Normalised Fluorescence with polyAU RNA [2] [%],% Normalised Fluorescence with gDNA [3] [%],MIC80 [4] [µM],IC50 (T. vaginalis) [µM],MIC80 [5] [µM],"S. aureus Selectivity Indices, Group ([1]; Amides)","E. faecalis Selectivity Indices, Group ([4]; SI, IC50 (μM)/MIC80 (μM), HEK293 cytotoxicity, Amides)","E. faecalis Selectivity Index (SI) ([4]; SI, IC50 (μM)/MIC80 (μM), HEK293 cytotoxicity, numeric value)","T. vaginalis Selectivity Indices, Group (T. vaginalis; SI, IC50 (μM)/IC50 (μM), HEK293 cytotoxicity, Amides)","T. vaginalis Selectivity Index (SI) (T. vaginalis; SI, IC50 (μM)/IC50 (μM), HEK293 cytotoxicity, numeric value)","S. aureus Selectivity Indices, Group ([1]; Alkyl Amidines and NH Pyrroles)","MIC80 S. aureus ([1]; MIC at 80% inhibition, ATCC 43300)","MIC80 E. faecalis ([4]; MIC at 80% inhibition, ATCC 51299)","MIC80 E. coli ([5]; MIC at 80% inhibition, ATCC 25922)"
"CC(C)NC(=O)c1cc(NC(=O)c2cc(NC(=O)c3ccc(/C=C/c4cnc5ccccc5c4)cc3)cn2C)cn1C [IVa4, (E)-N-isopropyl-1-methyl-4-(1-methyl-4-(4-(2-(quinolin-3-yl)vinyl)benzamido)-1H-pyrrole-2-carboxamido)-1H-pyrrole-2-carboxamide]",< 5,81,15,25 to 100,5 to 50,> 100,,,,,,,,,
"CCCCNC(=O)c1cc(NC(=O)c2cc(NC(=O)c3ccc(/C=C/c4cnc5ccccc5c4)cc3)cn2C)cn1C [IVa5, (E)-N-butyl-1-methyl-4-(1-methyl-4-(4-(2-(quinolin-3-yl)vinyl)benzamido)-1H-pyrrole-2-carboxamido)-1H-pyrrole-2-carboxamide]",< 5,12,51,< 5,1 to 5,> 100,B (Group B: 1.4 < SI <= 3),"C (Group: C, 1.5 < SI <= 5)",2,C (Group C: SI > 0.5),2,,,,
"Cn1cc(NC(=O)c2cc(NC(=O)c3ccc(/C=C/c4cnc5ccccc5c4)cc3)cn2C)cc1C(=O)NCCOCCOCCO [IVa7, (E)-N-(2-(2-(2-hydroxyethoxy)ethoxy)ethyl)-1-methyl-4-(1-methyl-4-(4-(2-(quinolin-3-yl)vinyl)benzamido)-1H-pyrrole-2-carboxamido)-1H-pyrrole-2-carboxamide]",5 to 25,92,65,> 100,5 to 50,> 100,,,,,,,,,
"CN(C)c1ccc(/C=C/c2ccc(C(=O)Nc3cc(C(=O)Nc4cc(C(=O)NCCCCN5CCCC5)n(C)c4)n(C)c3)cn2)cc1 [IVa15, (E)-6-(4-(dimethylamino)styryl)-N-(1-methyl-5-((1-methyl-5-((4-(pyrrolidin-1-yl)butyl)carbamoyl)-1H-pyrrol-3-yl)carbamoyl)-1H-pyrrol-3-yl)nicotinamide]",> 100,8,15,25 to 100,,> 100,,,,,,,,,
"COc1cccc(/C=C/c2ccc(C(=O)Nc3cc(C(=O)Nc4cc(C(=O)NCCC(=N)NC(C)C)n(C)c4)n(C)c3)cc2)c1 [Ia19, (E)-N-(3-imino-3-(isopropylamino)propyl)-4-(4-(4-(3-methoxystyryl)benzamido)-1-methyl-1H-pyrrole-2-carboxamido)-1-methyl-1H-pyrrole-2-carboxamide]",5 to 25,8,10,5 to 25,5 to 50,25 to 100,,,,,,B (Group B: 3 < SI <= 5),,,
"CCNC(=N)CCNC(=O)c1cc(NC(=O)c2cc(NC(=O)c3ccc(/C=C/c4ccc(OC)cc4)cc3)cn2C)cn1C [Ia20, (E)-N-(3-(ethylamino)-3-iminopropyl)-4-(4-(4-(4-methoxystyryl)benzamido)-1-methyl-1H-pyrrole-2-carboxamido)-1-methyl-1H-pyrrole-2-carboxamide]",5 to 25,6,3,5 to 25,,25 to 100,,,,,,,,,
"COc1cccc(/C=C/c2ccc(C(=O)Nc3cc(C(=O)Nc4cc(C(=O)NCCC(=N)NC(C)C)n(C)c4)n(C)c3)cn2)c1 [Ia23, (E)-N-(5-((5-((3-imino-3-(isopropylamino)propyl)carbamoyl)-1-methyl-1H-pyrrol-3-yl)carbamoyl)-1-methyl-1H-pyrrol-3-yl)-6-(3-methoxystyryl)nicotinamide]",25 to 100,25,41,> 100,5 to 50,> 100,,,,,,,,,
"CC/N=C(/CCNC(=O)c1cc(NC(=O)c2cc(NC(=O)c3ccc(/C=C/c4ccc5nonc5c4)cc3)cn2C)cn1C)NCC [Ia25, 4-(4-((E)-2-(benzo[c][1,2,5]oxadiazol-5-yl)vinyl)benzamido)-N-(5-(((Z)-3-(ethylamino)-3-(ethylimino)propyl)carbamoyl)-1-methyl-1H-pyrrol-3-yl)-1-methyl-1H-pyrrole-2-carboxamide]",25 to 100,12,28,> 100,,> 100,,,,,,,,,
"CONC(=N)CCNC(=O)c1cc(NC(=O)c2cc(NC(=O)c3ccc(/C=C/c4cnc5ccccc5c4)cc3)cn2C)cn1C [Ia28, (E)-N-(3-imino-3-(methoxyamino)propyl)-1-methyl-4-(1-methyl-4-(4-(2-(quinolin-3-yl)vinyl)benzamido)-1H-pyrrole-2-carboxamido)-1H-pyrrole-2-carboxamide]",< 5,66,34,< 5,,> 100,,,,,,,,,
"[H]/N=C(\CCNC(=O)c1cc(NC(=O)c2cc(NC(=O)c3ccc(C=Cc4ccc5nonc5c4)cc3)cn2C)cn1C)NCCOCCOCCOC [Ia40, (E)-4-(4-(2-(benzo[c][1,2,5]oxadiazol-5-yl)vinyl)benzamido)-N-(5-((12-imino-2,5,8-trioxa-11-azatetradecan-14-yl)carbamoyl)-1-methyl-1H-pyrrol-3-yl)-1-methyl-1H-pyrrole-2-carboxamide]",< 5,13,32,5 to 25,,> 100,,,,,,,,,
"CN1CCN(CCNC(=N)CCNC(=O)c2cc(NC(=O)c3cc(NC(=O)c4ccc(/C=C/c5cnc6ccccc6c5)cc4)cn3C)cn2C)CC1 [Ia41, (E)-N-(3-imino-3-((2-(4-methylpiperazin-1-yl)ethyl)amino)propyl)-1-methyl-4-(1-methyl-4-(4-(2-(quinolin-3-yl)vinyl)benzamido)-1H-pyrrole-2-carboxamido)-1H-pyrrole-2-carboxamide]",5 to 25,6,16,25 to 100,,> 100,,,,,,,,,
"[H]/N=C(\CCNC(=O)c1cc(NC(=O)c2cc(NC(=O)c3ccc(C=Cc4ccc5nonc5c4)cc3)cn2C)cn1C)NCCN1CCN(C)CC1 [Ia42, (E)-4-(4-(2-(benzo[c][1,2,5]oxadiazol-5-yl)vinyl)benzamido)-N-(5-((3-imino-3-((2-(4-methylpiperazin-1-yl)ethyl)amino)propyl)carbamoyl)-1-methyl-1H-pyrrol-3-yl)-1-methyl-1H-pyrrole-2-carboxamide]",5 to 25,4,20,5 to 25,,> 100,,,,,,,,,
"[H]/N=C(\CCNC(=O)c1cc(NC(=O)c2cc(NC(=O)c3ccc(C=Cc4ccc5nonc5c4)cc3)cn2C)cn1C)NCCc1ccccc1 [Ia43, (E)-4-(4-(2-(benzo[c][1,2,5]oxadiazol-5-yl)vinyl)benzamido)-N-(5-((3-imino-3-(phenethylamino)propyl)carbamoyl)-1-methyl-1H-pyrrol-3-yl)-1-methyl-1H-pyrrole-2-carboxamide]",< 5,42,15,< 5,,> 100,,,,,,,,,
"CCCCCCC[N+](C)(C)CCNC(=O)c1cc(NC(=O)c2cc(NC(=O)c3ccc(/C=C/c4cnc5ccccc5c4)cc3)cn2C)cn1C [Ic6, (E)-N,N-dimethyl-N-(2-(1-methyl-4-(1-methyl-4-(4-(2-(quinolin-3-yl)vinyl)benzamido)-1H-pyrrole-2-carboxamido)-1H-pyrrole-2-carboxamido)ethyl)heptan-1-aminium]",,12,50,,,,,,,,,,*** (*** means MIC80 <= 5 μM),** (** means 5 μM < MIC80 <= 25 μM),— (— means MIC80 > 100 μM)
